Source: ChEMBL document CHEMBL4177616, “Potent anti-melanogenic activity and favorable toxicity profile of selected 4-phenyl hydroxycoumarins in the zebrafish model and the computational molecular modeling studies” (Bioorg Med Chem, 2017)

What was measured:
[1] = target: T1, Tyrosinase (Danio rerio) (UniProt A0A8M1PAD4); experiment: Inhibition of zebrafish embryo tyrosinase assessed as residual activity at 50 ug/ml after 48 hrs relative to control
T1 sequence (whole entry): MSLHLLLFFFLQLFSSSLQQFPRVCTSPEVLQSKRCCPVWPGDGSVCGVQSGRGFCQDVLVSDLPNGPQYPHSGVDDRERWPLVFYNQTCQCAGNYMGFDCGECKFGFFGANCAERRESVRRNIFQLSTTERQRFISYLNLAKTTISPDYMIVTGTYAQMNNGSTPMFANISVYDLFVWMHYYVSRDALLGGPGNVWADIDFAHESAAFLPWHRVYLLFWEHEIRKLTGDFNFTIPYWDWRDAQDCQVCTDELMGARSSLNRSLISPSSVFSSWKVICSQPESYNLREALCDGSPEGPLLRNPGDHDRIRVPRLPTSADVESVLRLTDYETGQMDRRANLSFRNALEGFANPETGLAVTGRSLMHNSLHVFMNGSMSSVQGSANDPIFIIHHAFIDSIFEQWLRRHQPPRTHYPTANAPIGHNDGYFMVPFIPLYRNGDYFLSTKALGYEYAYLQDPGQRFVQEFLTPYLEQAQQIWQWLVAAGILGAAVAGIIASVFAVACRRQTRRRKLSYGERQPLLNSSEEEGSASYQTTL

[2] = in vivo; conditions: zebrafish
Description: Toxicity in wild type zebrafish embryos assessed as dead embryo at 12.5 ug/ml treated for 96 hrs post fertilization starting from 6 hrs post fertilization by inverted microscopic analysis relative to control

[3] = Toxicity in wild type zebrafish embryos assessed as dead embryo at 500 ug/ml treated for 96 hrs post fertilization starting from 6 hrs post fertilization by inverted microscopic analysis relative to control; assay type: organism-based, Danio rerio; conditions: in vivo, read-out: Activity
[4] = organism: Danio rerio; experiment: Toxicity in wild type zebrafish embryos assessed as head malformation at 1000 ug/ml treated for 96 hrs post fertilization starting from 6 hrs post fertilization by inverted microscopic analysis relative to control; assay type: organism-based; conditions: in vivo
[5] = organism: Danio rerio; experiment: Toxicity in wild type zebrafish embryos assessed as unhatched embryo at 2000 ug/ml treated for 96 hrs post fertilization starting from 6 hrs post fertilization by inverted microscopic analysis relative to control; assay type: organism-based; conditions: in vivo
[6] = Toxicity in wild type zebrafish embryos assessed as dead embryo at 2000 ug/ml treated for 96 hrs post fertilization starting from 6 hrs post fertilization by inverted microscopic analysis relative to control; assay type: organism-based, Danio rerio; conditions: in vivo, read-out: Activity
[7] = organism: Danio rerio; experiment: Toxicity in wild type zebrafish embryos assessed as otoliths at 500 ug/ml treated for 96 hrs post fertilization starting from 6 hrs post fertilization by inverted microscopic analysis relative to control; assay type: organism-based; conditions: in vivo
[8] = organism: Danio rerio; experiment: Toxicity in wild type zebrafish embryos assessed as eyes at 2500 ug/ml treated for 96 hrs post fertilization starting from 6 hrs post fertilization by inverted microscopic analysis relative to control; assay type: organism-based; conditions: in vivo
[9] = Toxicity in wild type zebrafish embryos assessed as dead embryo at 100 ug/ml treated for 96 hrs post fertilization starting from 6 hrs post fertilization by inverted microscopic analysis relative to control; assay type: organism-based, Danio rerio; conditions: in vivo, read-out: Activity
[10] = organism: Danio rerio; experiment: Toxicity in wild type zebrafish embryos assessed as growth retardation at 500 ug/ml treated for 96 hrs post fertilization starting from 6 hrs post fertilization by inverted microscopic analysis relative to control; assay type: organism-based; conditions: in vivo
[11] = organism: Danio rerio; experiment: Toxicity in wild type zebrafish embryos assessed as heart beat at 1000 ug/ml treated for 96 hrs post fertilization starting from 6 hrs post fertilization by inverted microscopic analysis relative to control; assay type: organism-based; conditions: in vivo
[12] = organism: Danio rerio; experiment: Toxicity in wild type zebrafish embryos assessed as growth retardation at 1000 ug/ml treated for 96 hrs post fertilization starting from 6 hrs post fertilization by inverted microscopic analysis relative to control; assay type: organism-based; conditions: in vivo
[13] = tested on: Danio rerio; experiment: Toxicity in wild type zebrafish embryos assessed as pericardial edema at 2500 ug/ml treated for 96 hrs post fertilization starting from 6 hrs post fertilization by inverted microscopic analysis relative to control; assay type: organism-based; conditions: in vivo
[14] = organism: Danio rerio; experiment: Toxicity in wild type zebrafish embryos assessed as head malformation at 2000 ug/ml treated for 96 hrs post fertilization starting from 6 hrs post fertilization by inverted microscopic analysis relative to control; assay type: organism-based; conditions: in vivo
[15] = organism: Danio rerio; experiment: Toxicity in wild type zebrafish embryos assessed as unhatched embryo at 2500 ug/ml treated for 96 hrs post fertilization starting from 6 hrs post fertilization by inverted microscopic analysis relative to control; assay type: organism-based; conditions: in vivo
[16] = organism: Danio rerio; experiment: Toxicity in wild type zebrafish embryos assessed as normal embryo at 100 ug/ml treated for 96 hrs post fertilization starting from 6 hrs post fertilization by inverted microscopic analysis relative to control; assay type: organism-based; conditions: in vivo
[17] = organism: Danio rerio; experiment: Toxicity in wild type zebrafish embryos assessed as teratogenic embryo at 2000 ug/ml treated for 96 hrs post fertilization starting from 6 hrs post fertilization by inverted microscopic analysis relative to control; assay type: organism-based; conditions: in vivo
[18] = organism: Danio rerio; experiment: Toxicity in wild type zebrafish embryos assessed as skeletal deformities at 100 ug/ml treated for 96 hrs post fertilization starting from 6 hrs post fertilization by inverted microscopic analysis relative to control; assay type: organism-based; conditions: in vivo
[19] = organism: Danio rerio; experiment: Toxicity in wild type zebrafish embryos assessed as growth retardation at 2000 ug/ml treated for 96 hrs post fertilization starting from 6 hrs post fertilization by inverted microscopic analysis relative to control; assay type: organism-based; conditions: in vivo
[20] = organism: Danio rerio; experiment: Toxicity in wild type zebrafish embryos assessed as blood circulation at 500 ug/ml treated for 96 hrs post fertilization starting from 6 hrs post fertilization by inverted microscopic analysis relative to control; assay type: organism-based; conditions: in vivo
[21] = organism: Danio rerio; experiment: Toxicity in wild type zebrafish embryos assessed as skeletal deformities at 500 ug/ml treated for 96 hrs post fertilization starting from 6 hrs post fertilization by inverted microscopic analysis relative to control; assay type: organism-based; conditions: in vivo
[22] = organism: Danio rerio; experiment: Toxicity in wild type zebrafish embryos assessed as head malformation at 100 ug/ml treated for 96 hrs post fertilization starting from 6 hrs post fertilization by inverted microscopic analysis relative to control; assay type: organism-based; conditions: in vivo
[23] = organism: Danio rerio; experiment: Toxicity in wild type zebrafish embryos assessed as notochord at 100 ug/ml treated for 96 hrs post fertilization starting from 6 hrs post fertilization by inverted microscopic analysis relative to control; assay type: organism-based; conditions: in vivo
[24] = Toxicity in wild type zebrafish embryos assessed as dead embryo at 1000 ug/ml treated for 96 hrs post fertilization starting from 6 hrs post fertilization by inverted microscopic analysis relative to control; assay type: organism-based, Danio rerio; conditions: in vivo, read-out: Activity
[25] = organism: Danio rerio; experiment: Toxicity in wild type zebrafish embryos assessed as eyes at 2000 ug/ml treated for 96 hrs post fertilization starting from 6 hrs post fertilization by inverted microscopic analysis relative to control; assay type: organism-based; conditions: in vivo
[26] = organism: Danio rerio; experiment: Toxicity in wild type zebrafish embryos assessed as head malformation at 2500 ug/ml treated for 96 hrs post fertilization starting from 6 hrs post fertilization by inverted microscopic analysis relative to control; assay type: organism-based; conditions: in vivo
[27] = tested on: Danio rerio; experiment: Toxicity in wild type zebrafish embryos assessed as pericardial edema at 100 ug/ml treated for 96 hrs post fertilization starting from 6 hrs post fertilization by inverted microscopic analysis relative to control; assay type: organism-based; conditions: in vivo
[28] = organism: Danio rerio; experiment: Toxicity in wild type zebrafish embryos assessed as skeletal deformities at 2000 ug/ml treated for 96 hrs post fertilization starting from 6 hrs post fertilization by inverted microscopic analysis relative to control; assay type: organism-based; conditions: in vivo
[29] = organism: Danio rerio; experiment: Toxicity in wild type zebrafish embryos assessed as eyes at 100 ug/ml treated for 96 hrs post fertilization starting from 6 hrs post fertilization by inverted microscopic analysis relative to control; assay type: organism-based; conditions: in vivo
[30] = organism: Danio rerio; experiment: Toxicity in wild type zebrafish embryos assessed as heart beat at 100 ug/ml treated for 96 hrs post fertilization starting from 6 hrs post fertilization by inverted microscopic analysis relative to control; assay type: organism-based; conditions: in vivo
[31] = organism: Danio rerio; experiment: Toxicity in wild type zebrafish embryos assessed as skeletal deformities at 1000 ug/ml treated for 96 hrs post fertilization starting from 6 hrs post fertilization by inverted microscopic analysis relative to control; assay type: organism-based; conditions: in vivo

For `O=c1cc(-c2ccccc2)c2ccc(O)cc2o1`, the Activity [1] was 48%.

Work on `Oc1ccc(O)cc1` [HYDROQUINONE] yielded a mortality at 12.5 ug/ml [2] of 66.7%.

With `O=c1cc(CO)occ1O` [KOJIC ACID] the mortality at 500 ug/ml [3] was 0%, the Activity [4] was 0% and the Activity [5] was 0%. For the same compound, the mortality at 2000 ug/ml [6] was 0%, the Activity [7] was 0% and the Activity [8] was 0%. The mortality at 100 ug/ml [9] was 0%, the Activity [10] was 0% and the Activity [11] was 83.33%. The Activity [12] was 0%, the Activity [13] was 100% and the Activity [14] was 78.33%. For the same compound, the Activity [15] was 0%, the Activity [16] was 65% and the Activity [17] was 100%. The Activity [18] was 0%, the Activity [19] was 3.33% and the Activity [20] was 0%. For the same compound, the Activity [21] was 0%, the Activity [22] was 0% and the Activity [23] was 0%. The mortality at 1000 ug/ml [24] was 0%, the Activity [25] was 0% and the Activity [26] was 98.33%. It also gave an Activity [27] of 35%, an Activity [28] of 78.33% and an Activity [29] of 0%. For the same compound, the Activity [30] was 0% and the Activity [31] was 0%.
